Data: patent EP1094724B1, “USE OF A PHENOL OXIDISING ENZYME IN THE TREATMENT OF TOBACCO” (priority 1998, dated 2000)

Target: T1, laccase derived from Trametes villosa, TvL (Trametes villosa, UniProt Q99044)
T1 construct: purchased Novo Nordisk A/S
T1 sequence (Q99044 22-520): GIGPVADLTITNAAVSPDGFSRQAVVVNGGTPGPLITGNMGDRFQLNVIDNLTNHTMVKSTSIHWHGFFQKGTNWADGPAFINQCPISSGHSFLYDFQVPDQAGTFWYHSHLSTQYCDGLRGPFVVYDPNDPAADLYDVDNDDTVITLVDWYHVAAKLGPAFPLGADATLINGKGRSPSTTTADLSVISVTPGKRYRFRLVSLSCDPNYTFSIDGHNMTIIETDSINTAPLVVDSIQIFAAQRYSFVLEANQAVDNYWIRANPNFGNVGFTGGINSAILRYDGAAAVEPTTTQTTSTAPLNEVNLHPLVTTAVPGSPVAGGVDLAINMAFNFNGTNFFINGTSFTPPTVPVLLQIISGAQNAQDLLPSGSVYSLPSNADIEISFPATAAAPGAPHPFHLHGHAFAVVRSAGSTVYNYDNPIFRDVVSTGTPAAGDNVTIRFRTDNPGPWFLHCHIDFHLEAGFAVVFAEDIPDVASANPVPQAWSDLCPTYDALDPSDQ
Test: Effect of laccase on tobacco constituents, UV/Vis spectra before and after treatment (Example 1)
Type: biochemical
Conditions: 9 mM Na-acetate buffer pH 5.0; 4.8% Ethanol; 0.025 mg/ml of tobacco constituent; 0.016 mg/ml laccase; spectra 190-700 nm every 20 seconds for 5 minutes
Method: Tobacco constituents: Nicotine, Chlorogenic acid, Rutin and Scopoletin. Enzyme: Purified laccase derived from Trametes villosa, TvL. Apparatus: HP8452 UV/Vis diode array spectrophotometer, 1 cm quarts cuvette. Buffer: Sodium acetate (Merck)
10 mM acetate buffer was prepared from sodium acetate adjusted to pH 5.0 with sulphuric acid. Stock solution of 0.50 mg/ml in 96% ethanol was prepared of nicotine, chlorogenic acid, rutin, and scopoletin. A stock solution of 0.31 mg enzyme protein/ml of laccase in de-mineralised water was prepared. The HP diode array spectrophotometer was operated as per the manufacturer's instructions. A 1 cm quartz cuvette was used. As a blank was used 950µl buffer mixed with 50µl 96% ethanol. In a 1 cm quart cuvette was mixed 900µl 10 mM acetate buffer and 50µl of the stock solution of the compound in question. A spectrum of the "native" compound was recorded in the range 190-700 nm. 50µl of TvL stock solution was added and carefully mixed, and spectra in the range 190-700 nm were recorded every 20 seconds for 5 minutes.

## COc1cc2ccc(=O)oc2cc1O [S, 7-Hydroxy-6-methoxy-2H-1-benzopyran-2-one]
  spectral changes (peak position and peak relative height): significant spectral changes
